Assay results reported in paper PMC12136031 (Science Advances, 2025).
Where two headings read alike, the source gives them in different places.

Experiments:
[1] = target: T1, GR (Homo sapiens, UniProt P04150); experiment: Safety47 NHR Protein Interaction GR; type: cell-based; details: for Emax: read-out: Max Response; for EC50: read-out: RC50 (EC50); for IC50: read-out: RC50 (IC50)
T1 construct: purchased Eurofins Panlab (Safety47 Safety Scan, contract panel)
T1 sequence (P04150 1-777): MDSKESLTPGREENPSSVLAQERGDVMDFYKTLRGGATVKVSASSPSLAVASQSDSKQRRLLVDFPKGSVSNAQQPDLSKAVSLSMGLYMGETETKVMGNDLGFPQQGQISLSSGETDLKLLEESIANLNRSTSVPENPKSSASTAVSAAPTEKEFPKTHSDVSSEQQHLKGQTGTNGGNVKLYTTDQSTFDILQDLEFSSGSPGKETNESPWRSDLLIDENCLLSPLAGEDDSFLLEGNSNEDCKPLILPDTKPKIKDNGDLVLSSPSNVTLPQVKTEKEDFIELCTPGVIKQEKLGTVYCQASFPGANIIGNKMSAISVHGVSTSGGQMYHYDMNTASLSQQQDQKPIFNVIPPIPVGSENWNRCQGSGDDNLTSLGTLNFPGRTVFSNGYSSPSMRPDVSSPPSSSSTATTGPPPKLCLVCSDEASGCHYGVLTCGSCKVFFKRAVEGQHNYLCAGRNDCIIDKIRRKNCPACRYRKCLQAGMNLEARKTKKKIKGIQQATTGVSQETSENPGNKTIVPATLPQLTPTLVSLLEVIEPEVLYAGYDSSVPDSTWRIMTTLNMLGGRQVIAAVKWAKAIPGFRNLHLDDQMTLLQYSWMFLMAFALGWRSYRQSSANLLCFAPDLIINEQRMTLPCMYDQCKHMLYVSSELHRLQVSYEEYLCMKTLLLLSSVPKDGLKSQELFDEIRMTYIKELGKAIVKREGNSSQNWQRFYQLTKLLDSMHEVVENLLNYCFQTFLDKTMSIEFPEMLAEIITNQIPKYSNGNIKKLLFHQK

[2] = target: T2, SERT (Homo sapiens, UniProt P31645); experiment: Safety47 Transporter SERT; type: cell-based; details: Blocker; for Emax: read-out: Max Response; for IC50: read-out: RC50 (IC50)
T2 construct: purchased Eurofins Panlab Safety47 Safety Scan

[3] = target: T3, DRD2S (Homo sapiens, UniProt P14416); experiment: Safety47 cAMP DRD2S; type: cell-based; details: for Emax: read-out: Max Response; for EC50: read-out: RC50 (EC50); for IC50: read-out: RC50 (IC50)
T3 construct: purchased Eurofins Panlab Safety47 Safety Scan

[4] = target: T4, COX2 (Homo sapiens, UniProt P35354); experiment: Safety47 Enzymatic COX2; type: biochemical; details: Inhibitor; for Emax: read-out: Max Response; for IC50: read-out: RC50 (IC50)
T4 construct: purchased Eurofins Panlab (Safety47 Safety Scan, contract panel)
T4 sequence (P35354 18-604): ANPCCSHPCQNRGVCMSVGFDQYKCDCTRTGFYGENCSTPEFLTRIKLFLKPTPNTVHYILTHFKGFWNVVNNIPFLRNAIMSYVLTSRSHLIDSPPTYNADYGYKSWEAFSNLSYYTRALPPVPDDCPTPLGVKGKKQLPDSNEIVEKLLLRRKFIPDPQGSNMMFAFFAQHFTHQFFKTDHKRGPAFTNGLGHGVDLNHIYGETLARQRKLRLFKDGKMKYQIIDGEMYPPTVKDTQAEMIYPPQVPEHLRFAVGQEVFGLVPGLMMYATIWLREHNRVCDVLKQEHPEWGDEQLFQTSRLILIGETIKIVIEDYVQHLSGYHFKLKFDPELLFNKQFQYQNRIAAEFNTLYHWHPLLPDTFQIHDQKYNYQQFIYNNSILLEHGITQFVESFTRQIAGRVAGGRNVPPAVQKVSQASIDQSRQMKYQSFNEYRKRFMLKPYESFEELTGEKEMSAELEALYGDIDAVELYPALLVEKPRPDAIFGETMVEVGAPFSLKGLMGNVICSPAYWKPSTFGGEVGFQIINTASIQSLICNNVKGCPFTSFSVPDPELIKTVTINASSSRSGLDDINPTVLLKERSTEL

[5] = target: T5, MAOA (Homo sapiens, UniProt P21397); experiment: Safety47 Enzymatic MAOA; type: biochemical; details: Inhibitor; for Emax: read-out: Max Response; for IC50: read-out: RC50 (IC50)
T5 construct: purchased Eurofins Panlab (Safety47 Safety Scan, contract panel)
T5 sequence (P21397 1-527): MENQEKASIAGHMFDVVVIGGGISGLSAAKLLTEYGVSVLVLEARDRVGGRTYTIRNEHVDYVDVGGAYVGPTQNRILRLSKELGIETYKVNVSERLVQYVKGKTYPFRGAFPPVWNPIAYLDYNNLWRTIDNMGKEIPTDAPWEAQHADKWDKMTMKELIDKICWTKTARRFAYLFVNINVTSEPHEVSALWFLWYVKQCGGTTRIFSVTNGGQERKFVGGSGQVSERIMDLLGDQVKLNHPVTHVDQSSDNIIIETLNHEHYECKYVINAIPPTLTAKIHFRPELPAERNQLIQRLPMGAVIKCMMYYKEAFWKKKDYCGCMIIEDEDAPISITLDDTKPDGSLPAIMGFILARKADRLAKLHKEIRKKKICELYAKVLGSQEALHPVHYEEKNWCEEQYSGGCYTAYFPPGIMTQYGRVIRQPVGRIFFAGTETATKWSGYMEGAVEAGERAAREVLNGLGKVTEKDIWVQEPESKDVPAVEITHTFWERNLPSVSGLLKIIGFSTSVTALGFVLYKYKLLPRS

[6] = target: T6, HTR2A (Homo sapiens, UniProt P28223); experiment: Safety47 Calcium Flux HTR2A; type: cell-based; details: for Emax: read-out: Max Response; for EC50: read-out: RC50 (EC50); for IC50: read-out: RC50 (IC50)
T6 construct: purchased Eurofins Panlab Safety47 Safety Scan

[7] = target: T7, HTR2B (Homo sapiens, UniProt P41595); experiment: Safety47 Calcium Flux HTR2B; type: cell-based; details: for Emax: read-out: Max Response; for EC50: read-out: RC50 (EC50); for IC50: read-out: RC50 (IC50)
T7 construct: purchased Eurofins Panlab Safety47 Safety Scan

[8] = target: T8, HTR1A (Homo sapiens, UniProt P08908); experiment: Safety47 cAMP HTR1A; type: cell-based; details: for Emax: read-out: Max Response; for EC50: read-out: RC50 (EC50); for IC50: read-out: RC50 (IC50)
T8 construct: purchased Eurofins Panlab Safety47 Safety Scan
T8 sequence (P08908 1-422): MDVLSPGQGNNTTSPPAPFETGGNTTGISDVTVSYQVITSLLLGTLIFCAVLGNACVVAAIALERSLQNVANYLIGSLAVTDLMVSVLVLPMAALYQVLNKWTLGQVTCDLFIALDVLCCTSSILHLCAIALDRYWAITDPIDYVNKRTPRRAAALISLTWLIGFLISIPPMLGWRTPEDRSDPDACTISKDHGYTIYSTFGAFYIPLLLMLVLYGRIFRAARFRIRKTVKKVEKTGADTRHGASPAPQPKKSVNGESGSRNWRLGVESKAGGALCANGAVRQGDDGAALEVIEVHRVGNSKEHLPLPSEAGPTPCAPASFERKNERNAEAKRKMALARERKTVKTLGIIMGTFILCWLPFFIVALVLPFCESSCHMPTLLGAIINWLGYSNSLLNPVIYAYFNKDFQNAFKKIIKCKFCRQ

T3 sequence (P14416 1-414 isoform P14416-2): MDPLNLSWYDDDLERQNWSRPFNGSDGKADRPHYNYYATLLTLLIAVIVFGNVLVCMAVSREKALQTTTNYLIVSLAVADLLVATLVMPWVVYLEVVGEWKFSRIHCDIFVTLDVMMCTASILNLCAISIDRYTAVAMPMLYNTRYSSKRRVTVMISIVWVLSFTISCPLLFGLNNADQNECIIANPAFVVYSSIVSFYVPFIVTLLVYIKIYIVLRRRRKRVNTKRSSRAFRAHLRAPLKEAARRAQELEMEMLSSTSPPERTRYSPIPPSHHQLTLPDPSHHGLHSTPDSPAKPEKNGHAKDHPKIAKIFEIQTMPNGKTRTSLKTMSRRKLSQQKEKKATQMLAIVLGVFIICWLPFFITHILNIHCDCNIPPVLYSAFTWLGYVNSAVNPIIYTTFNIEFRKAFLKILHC
T6 sequence (P28223 whole entry): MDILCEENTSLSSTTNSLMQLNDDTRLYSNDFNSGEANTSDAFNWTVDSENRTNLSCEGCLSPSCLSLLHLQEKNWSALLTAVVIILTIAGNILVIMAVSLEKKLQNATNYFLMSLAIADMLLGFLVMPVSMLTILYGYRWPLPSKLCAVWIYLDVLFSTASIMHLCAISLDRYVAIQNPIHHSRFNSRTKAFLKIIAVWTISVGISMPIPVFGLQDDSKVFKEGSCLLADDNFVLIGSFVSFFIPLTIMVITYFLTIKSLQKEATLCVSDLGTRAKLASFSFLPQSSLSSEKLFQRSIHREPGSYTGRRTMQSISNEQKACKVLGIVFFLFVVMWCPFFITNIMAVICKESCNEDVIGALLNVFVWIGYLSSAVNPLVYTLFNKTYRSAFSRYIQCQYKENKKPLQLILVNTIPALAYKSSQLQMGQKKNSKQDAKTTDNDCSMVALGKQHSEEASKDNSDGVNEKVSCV
T2 sequence (P31645 whole entry): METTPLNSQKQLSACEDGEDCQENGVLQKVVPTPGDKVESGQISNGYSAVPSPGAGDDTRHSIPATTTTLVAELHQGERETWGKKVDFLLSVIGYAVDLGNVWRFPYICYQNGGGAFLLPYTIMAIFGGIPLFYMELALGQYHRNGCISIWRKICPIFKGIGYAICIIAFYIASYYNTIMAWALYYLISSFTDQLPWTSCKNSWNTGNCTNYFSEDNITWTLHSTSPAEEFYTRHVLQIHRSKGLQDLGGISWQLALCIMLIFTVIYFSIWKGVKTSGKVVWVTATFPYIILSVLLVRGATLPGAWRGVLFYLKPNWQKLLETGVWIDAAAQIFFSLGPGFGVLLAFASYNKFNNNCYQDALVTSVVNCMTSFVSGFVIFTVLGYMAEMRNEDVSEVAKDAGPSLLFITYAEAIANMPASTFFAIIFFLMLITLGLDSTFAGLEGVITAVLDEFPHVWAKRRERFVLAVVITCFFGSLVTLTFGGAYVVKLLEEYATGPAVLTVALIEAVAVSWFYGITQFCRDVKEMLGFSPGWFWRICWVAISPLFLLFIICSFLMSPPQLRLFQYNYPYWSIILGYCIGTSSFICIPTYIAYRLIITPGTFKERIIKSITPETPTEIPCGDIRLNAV
T7 sequence (P41595 whole entry): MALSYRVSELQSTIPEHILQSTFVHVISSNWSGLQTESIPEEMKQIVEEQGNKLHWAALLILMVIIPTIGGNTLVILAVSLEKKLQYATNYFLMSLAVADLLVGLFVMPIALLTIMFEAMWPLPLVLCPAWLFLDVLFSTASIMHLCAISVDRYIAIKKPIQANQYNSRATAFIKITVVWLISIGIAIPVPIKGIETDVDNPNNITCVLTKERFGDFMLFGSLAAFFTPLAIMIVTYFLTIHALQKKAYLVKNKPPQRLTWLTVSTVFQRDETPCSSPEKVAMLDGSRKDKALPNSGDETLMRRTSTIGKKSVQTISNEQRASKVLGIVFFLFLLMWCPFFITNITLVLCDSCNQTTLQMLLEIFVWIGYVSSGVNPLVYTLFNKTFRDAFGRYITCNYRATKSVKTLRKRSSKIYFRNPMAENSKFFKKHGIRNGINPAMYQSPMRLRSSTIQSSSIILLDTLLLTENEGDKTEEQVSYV

Row | Structure (SMILES) | Emax ([1]; Agonist) | EC50 ([1]; Agonist) | Emax ([1]; Antagonist) | IC50 ([1]; Antagonist) | Emax [2] | IC50 [2] | Emax ([3]; Agonist) | EC50 ([3]; Agonist) | Emax ([3]; Antagonist) | IC50 ([3]; Antagonist) | Emax [4] | IC50 [4] | Emax [5] | IC50 [5] | Emax ([6]; Agonist) | EC50 ([6]; Agonist) | Emax ([6]; Antagonist) | IC50 ([6]; Antagonist) | Emax ([7]; Agonist) | EC50 ([7]; Agonist) | other results
1 | Cl.c1ccc2c(Nc3ccc4[nH]ccc4c3)nc(-c3ccncc3)nc2c1 [BC18630, N-1H-indol-5-yl-2-pyridin-4-ylquinazolin-4-amine hydrochloride] | 0% | > 10 µM | 0% | > 10 µM | 0% | > 10 µM | 0.87% | > 10 µM | 24.3% | > 10 µM | 8.53% | > 10 µM | 57% | > 10 µM | 4.44% | > 10 µM | 22.5% | > 10 µM | 5.41% | > 10 µM | Emax ([7]; Antagonist): 9.48%; IC50 ([7]; Antagonist): > 10 µM; Emax ([8]; Agonist): 9.36%; EC50 ([8]; Agonist): > 10 µM; Emax ([8]; Antagonist): 5.7%; IC50 ([8]; Antagonist): > 10 µM
2 | Cl.Fc1cc(Nc2nc(-c3ccncc3)nc3ncccc23)cc2cc[nH]c12 [BC18813, N-(7-fluoro-1H-indol-5-yl)-2-pyridin-4-ylpyrido[2,3-d]pyrimidin-4-amine hydrochloride] | 4.56% | > 10 µM | 7.56% | > 10 µM | 0% | > 10 µM | 13.5% | > 10 µM | 5.93% | > 10 µM | 17.9% | > 10 µM | 22.2% | > 10 µM | 0.95% | > 10 µM | 25.6% | > 10 µM | 2.91% | > 10 µM | Emax ([7]; Antagonist): 31.3%; IC50 ([7]; Antagonist): > 10 µM; Emax ([8]; Agonist): 13%; EC50 ([8]; Agonist): > 10 µM; Emax ([8]; Antagonist): 0%; IC50 ([8]; Antagonist): > 10 µM
